Experimental findings from patent publication US9199965B2, “Benzoimidazole derivatives and pharmaceutical composition comprising the same” (Daewoong Co., Ltd., priority 2005, dated 2015) are described below.

The assay concerns the target T1, human vanilloid-1 (hVR1) (Homo sapiens, UniProt Q8NER1).
T1 construct: expressed in transfected cells; host or cells: HEK293 Tet-on (hVR1-HEK293), doxycycline-induced
Description: Calcium influx of vanilloid receptor in hVR1-HEK293 cells (capsaicin-induced, Fluo-3/AM). It is filed as cell-based. Particulars: 1 μM capsaicin-induced intracellular calcium influx, read-out: Inhibitory Activity IC50. As to the method: Experiments for calcium influx were performed to measure the activity of the compounds as antagonists.
The cell strain hVR1-HEK293 is the human embryonic kidney (HEK) 293 Tet-on cell transfected with a human vanilloid-1 gene (pTRE2hyg-hVR1, 7.8 kb), which is capable of controlling the expression of VR1 according to the administration of deoxycycline, a tetracycline derivative analog. In a medium supplemented with deoxycycline two days before calcium influx experiments, the cell strain was cultured to induce the expression of VR1. After being grown to a confluency of about 80% in T75 flasks, hVR1-HEK293 was detached from the flask using trypsin. Cells harvested by centrifugation were suspended in a medium supplemented with 1 μg/mL of deoxycycline and diluted to a density of 2-4×10^5 cells/mL, after which a 100 μL aliquot of the cell suspension was added to each well of 96 well black plates. Before the measurement of calcium influx, the cells were incubated for two days at 37° C. in a 5% CO2 incubator.
For use in calcium influx experiments, each compound was dissolved in dimethyl sulfoxide (DMSO).
To measure an intracellular calcium influx, cells were incubated at 37° C. for 90 min in a medium containing the calcium indicator Fluo-3/AM so as to allow the fluorescent dye to penetrate into the cells. Then, the cells were washed three times with D-PBS (Dulbecco's phosphate buffered saline) containing 10 mM HEPES to remove the fluorescent dye which remained outside. 193 μL aliquot of D-PBS was added to each well, followed by the addition of various concentrations of compounds thereto. In order to measure the antagonistic activity of the compounds, calcium influx was induced by treatment with 1 μM capsaicin. The inhibitory effect of each compound on 1 μM capsaicin-induced intracellular calcium influx according to compound concentration was measured using a fluorescent analyzer and the data thus obtained were analyzed on the basis of the Hill's equation.
Background: A change in cytosolic calcium serves as a functional read-out for many receptors and channels.

T1 sequence (Q8NER1 whole entry): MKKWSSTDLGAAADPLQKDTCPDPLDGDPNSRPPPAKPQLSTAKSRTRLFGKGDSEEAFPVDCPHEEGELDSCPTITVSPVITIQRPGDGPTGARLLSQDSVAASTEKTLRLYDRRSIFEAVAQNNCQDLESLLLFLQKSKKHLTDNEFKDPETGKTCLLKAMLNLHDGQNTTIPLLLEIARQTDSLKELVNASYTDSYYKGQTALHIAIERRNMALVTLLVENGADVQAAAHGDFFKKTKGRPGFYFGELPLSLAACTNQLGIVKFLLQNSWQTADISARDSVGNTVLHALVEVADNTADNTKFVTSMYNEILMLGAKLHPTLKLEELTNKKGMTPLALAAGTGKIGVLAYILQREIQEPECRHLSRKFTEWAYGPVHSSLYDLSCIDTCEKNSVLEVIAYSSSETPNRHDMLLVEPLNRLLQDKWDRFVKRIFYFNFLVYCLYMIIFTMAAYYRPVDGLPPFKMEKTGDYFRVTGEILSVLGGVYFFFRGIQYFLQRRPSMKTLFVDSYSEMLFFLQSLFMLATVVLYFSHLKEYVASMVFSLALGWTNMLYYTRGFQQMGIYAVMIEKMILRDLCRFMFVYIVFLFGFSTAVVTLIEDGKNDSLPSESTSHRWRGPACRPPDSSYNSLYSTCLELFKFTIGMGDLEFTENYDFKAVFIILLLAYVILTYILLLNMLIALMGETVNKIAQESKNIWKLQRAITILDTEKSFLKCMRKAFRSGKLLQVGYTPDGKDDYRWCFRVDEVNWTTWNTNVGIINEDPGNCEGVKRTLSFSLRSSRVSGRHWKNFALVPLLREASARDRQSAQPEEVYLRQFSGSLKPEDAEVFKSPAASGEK

As a reminder, the IC50 is the concentration at which inhibition is half-maximal. Take `FC(F)(F)c1ccc2nc(-c3ccc(-c4ccccn4)cc3)[nH]c2c1` [Compound 48, 6-(trifluoromethyl)-2-(4-(pyridin-2-yl)phenyl)-1H-benzoimidazole]: the half-maximal inhibitory concentration (IC50) came out at 160 nM.

Turning to `FC(F)(F)c1cccnc1-c1ccc(-c2nc3cc(Cl)c(Cl)cc3[nH]2)cc1` [Compound 35, 5,6-dichloro-2-[4-(3-trifluoromethylpyridin-2-yl)phenyl]-1H-benzoimidazole], the 50% inhibitory concentration (IC50) is 39 nM.

As to `FC(F)(F)c1cc(Cl)c2nc(-c3ccc(-c4ccccn4)cc3)[nH]c2c1` [Compound 49, 4-chloro-6-(trifluoromethyl)-2-(4-(pyridin-2-yl)phenyl)-1H-benzoimidazole], the IC50 turned out to be 284 nM.

As to `CC(C)(C)c1ccc2nc(-c3ccc(-c4cccc5ccccc45)nc3)[nH]c2c1` [Compound 174, 6-tert-butyl-2-(6-naphthalen-1-ylpyridin-3-yl)-1H-benzoimidazole], the IC50 is 282 nM.

Consider `FC(F)(F)c1ccc2nc(-c3cccc(Cn4cc(Cl)cn4)c3)[nH]c2c1` [Compound 195, 2-[3-(4-chloropyrazol-1-ylmethyl)phenyl]-6-trifluoromethyl-1H-benzoimidazole], for which the IC50 was found to be 1400 nM.

On to `FC(F)(F)c1cc(Br)c2nc(-c3ccc(-c4nccc(C(F)(F)F)n4)cc3)[nH]c2c1` [Compound 56, 4-bromo-6-(trifluoromethyl)-2-(4-(4-(trifluoromethyl)pyrimidin-2-yl)phenyl)-1H-benzoimidazole], for which the IC50 amounted to 22 nM.

For `FC(F)(F)c1ccc2nc(-c3ccc(-c4ncccc4C(F)(F)F)c4ccccc34)[nH]c2c1` [Compound 113, 6-trifluoromethyl-2-[4-(3-trifluoromethylpyridin-2-yl)naphthalen-1-yl]-1H-benzoimidazole], the IC50 is 363 nM.

For `FC(F)(F)c1cccnc1-c1ccc(-c2nc3ncc(Br)cc3[nH]2)cc1` [Compound 39], the concentration for half-maximal inhibition (IC50) was 19 nM.

For `Fc1ccc2nc(-c3ccc(-c4ncccc4C(F)(F)F)cc3)[nH]c2c1` [Compound 38, 6-fluoro-2-(4-(3-(trifluoromethyl)pyridin-2-yl)phenyl)-1H-benzoimidazole], the half-inhibitory concentration (IC50) amounted to 454 nM.

For the compound `Clc1cc2nc(-c3ccc(-c4ccccn4)cn3)[nH]c2cc1Cl` [Compound 173, 5,6-dichloro-2-(5-(pyridin-2-yl)pyridin-2-yl)-1H-benzoimidazole], the concentration for half-maximal inhibition (IC50) came out at 46 nM.

As to `FC(F)(F)c1cc(Br)c2nc(-c3ccc(-c4ncccc4Cl)cn3)[nH]c2c1` [Compound 140, 4-bromo-2-(5-(3-chloropyridin-2-yl)pyridin-2-yl)-6-(trifluoromethyl)-1H-benzoimidazole], the half-maximal inhibitory concentration (IC50) worked out at 66 nM.

Consider `CC(C)(C)c1ccc2nc(-c3ccc(-c4ccccn4)cc3)[nH]c2c1` [Compound 47, 6-tert-butyl-2-(4-pyridin-2-ylphenyl)-1H-benzoimidazole], for which the IC50 is 82 nM.

For `FC(F)(F)c1ccc2nc(-c3ccc(-c4cccc5ccccc45)nc3)[nH]c2c1` [Compound 176, 6-(trifluoromethyl)-2-(6-(naphthalen-1-yl)pyridin-3-yl)-1H-benzoimidazole], the IC50 amounted to 229 nM.

Regarding `FC(F)(F)c1ccc2nc(-c3ccc(-c4ncccc4C(F)(F)F)cc3Cl)[nH]c2c1` [Compound 97, 2-[2-chloro-4-(3-trifluoromethylpyridin-2-yl)phenyl]-6-trifluoromethyl-1H-benzoimidazole], the IC50 came out at 644 nM.

`FC(F)(F)c1cc(C(F)(F)F)c2nc(-c3ccc(-c4ccccn4)cc3)[nH]c2c1` [Compound 51, 4,6-bis(trifluoromethyl)-2-(4-(pyridin-2-yl)phenyl)-1H-benzoimidazole]: the IC50 was 246 nM.

Take `CC(C)(C)c1ccc2nc(-c3ccc(-c4ncccc4C(F)(F)F)cn3)[nH]c2c1` [Compound 159, 6′-(6-tert-butyl-1H-benzoimidazole-2-yl)-3-trifluoromethyl-[2,3′]bipyridine]: the half-maximal inhibitory concentration (IC50) was 3950 nM.

Take `Clc1ccc2nc(-c3ccc(-c4cccc5ccccc45)nc3)[nH]c2c1` [Compound 177, 6-chloro-2-(6-(naphthalen-1-yl)pyridin-3-yl)-1H-benzoimidazole]: the half-maximal inhibitory concentration (IC50) was 151 nM.

In the case of `FC(F)(F)c1cccnc1-c1ccc(-c2nc3ccc(Cl)cc3[nH]2)nc1` [Compound 160, 6′-(6-chloro-1H-benzoimidazole-2-yl)-3-trifluoromethyl-[2,3′]bipyridine], the IC50 is 258 nM.

Consider `Fc1ccc2nc(-c3ccc(-c4ncccc4C(F)(F)F)cn3)[nH]c2c1` [Compound 166, 6-fluoro-2-(5-(3-(trifluoromethyl)pyridin-2-yl)pyridin-2-yl)-1H-benzoimidazole], for which the IC50 was found to be 3900 nM.

In the case of `Clc1cc2nc(-c3ccc(-c4ccccn4)c(Cl)c3)[nH]c2cc1Cl` [Compound 129, 5,6-dichloro-2-(3-chloro-4-(pyridin-2-yl)phenyl)-1H-benzoimidazole], the IC50 was determined as 3960 nM.

Consider `Clc1cccnc1-c1ccc(-c2nc3ccc(Br)cc3[nH]2)cc1` [Compound 13, 6-bromo-2-(4-(3-chloropyridin-2-yl)phenyl)-1H-benzoimidazole], for which the IC50 was found to be 289 nM.

Take `CC(C)(C)c1ccc2nc(-c3ccc(-c4ncccn4)cc3)[nH]c2c1` [Compound 58, 6-tert-butyl-2-(4-(pyrimidin-2-yl)phenyl)-1H-benzoimidazole]: the IC50 was found to be 145 nM.

As for `CC(C)(C)c1ccc2nc(-c3ccc(-c4ccccn4)cc3F)[nH]c2c1` [Compound 82, 6-tert-butyl-2-(2-fluoro-4-pyridin-2-yl)phenyl-1H-benzoimidazole], the IC50 turned out to be 263 nM.

As for `FC(F)(F)c1cc(C(F)(F)F)c2nc(-c3ccc(-c4ncccc4Cl)c4ccccc34)[nH]c2c1` [Compound 106, 2-[4-(3-chloropyridin-2-yl)naphthalen-1-yl]-4,6-bistrifluoromethyl-1H-benzoimidazole], the IC50 turned out to be 275 nM.

For `FC(F)(F)c1ccc2nc(-c3ccc(-c4ncccc4Cl)cn3)[nH]c2c1` [Compound 136, 3-chloro-6′-(6-trifluoromethyl-1H-benzoimidazole-2-yl)-[2,3′]bipyridine], the IC50 was determined as 952 nM.

As to `Clc1cc(-c2nc3ccc(Br)cc3[nH]2)ccc1-c1ccccn1` [Compound 130, 6-bromo-2-(3-chloro-4-(pyridin-2-yl)phenyl)-1H-benzoimidazole], the IC50 came out at 436 nM.

Turning to `Clc1cc2nc(-c3ccc(-c4ccccn4)cc3)[nH]c2cc1Cl` [Compound 50, 5,6-dichloro-2-(4-(pyridin-2-yl)phenyl)-1H-benzoimidazole], the IC50 came out at 292 nM.

Take `Brc1cnc2nc(-c3ccc(-c4ccccn4)cc3)[nH]c2c1` [Compound 53, 6-bromo-2-(4-(pyridin-2-yl)phenyl)-1H-imidazo[4,5-b]pyridine]: the IC50 was 145 nM.

Turning to `CC(C)(C)c1ccc2nc(-c3ccc(-c4ncccc4C#N)cc3)[nH]c2c1` [Compound 60], the IC50 amounted to 150 nM.

`Clc1ccc2nc(-c3ccc(-c4ncccc4Cl)cn3)[nH]c2c1` [Compound 137, 3-chloro-6′-(6-chloro-1H-benzoimidazole-2-yl)-[2,3′]bipyridine]: the IC50 amounted to 569 nM.

Regarding `FC(F)(F)c1cc(Br)c2nc(-c3ccc(-c4ncccc4Cl)cc3)[nH]c2c1` [Compound 14, 4-bromo-2-(4-(3-chloropyridin-2-yl)phenyl)-6-(trifluoromethyl)-1H-benzoimidazole], the IC50 was determined as 168 nM.

Regarding `Clc1cccnc1-c1ccc(-c2nc3ccc(Br)cc3[nH]2)nc1` [Compound 141, 6-bromo-2-(5-(3-chloropyridin-2-yl)pyridin-2-yl)-1H-benzoimidazole], the IC50 was found to be 2400 nM.

Consider `Fc1ccc2nc(-c3ccc(-c4ccccn4)cc3)[nH]c2c1` [Compound 52, 6-fluoro-2-(4-(pyridin-2-yl)phenyl)-1H-benzoimidazole], for which the IC50 was determined as 1400 nM.

`N#Cc1cccnc1-c1ccc(-c2nc3ccc(C(F)(F)F)cc3[nH]2)cc1` [Compound 59, 2-(4-(6-(trifluoromethyl)-1H-benzoimidazole-2-yl)phenyl)pyridin-3-carbonitrile]: the concentration for half-maximal inhibition (IC50) amounted to 296 nM.
